Patent US11083199B2, “Heterocycle derivatives as pesticides” (Bayer Aktiengesellschaft, priority 2017, dated 2021)

Assays:
Type in all cases: in vivo
[1] = test system: Ctenocephalides felis; experiment: Ctenocephalides felis in vitro contact test with adult cat fleas; details: application rate 5 μg/cm^2 (=500 g/ha), adult cat fleas dead or moribund after 48 h, read-out: efficacy
Description: For the coating of the test tubes, 9 mg of active ingredient are first dissolved in 1 ml of acetone p.a. and then diluted to the desired concentration with acetone p.a. 250 μl of the solution are distributed homogeneously on the inner walls and the base of a 25 ml glass tube by turning and rocking on an orbital shaker (rocking rotation at 30 rpm for 2 h). With 900 ppm of active ingredient solution and internal surface area 44.7 cm^2, given homogeneous distribution, an area-based dose of 5 μg/cm^2 is achieved. After the solvent has evaporated off, the tubes are populated with 5-10 adult cat fleas (Ctenocephalides felis), sealed with a perforated plastic lid and incubated in a horizontal position at room temperature and ambient humidity. After 48 h, efficacy is determined. To this end, the tubes are stood upright and the fleas are knocked to the base of the tube. Fleas which remain motionless at the base or move in an uncoordinated manner are considered to be dead or moribund. […] 100% efficacy means that all the fleas were dead or moribund. 0% efficacy means that no fleas were harmed.

[2] = test system: Ctenocephalides felis; experiment: Ctenocephalides felis oral test; details: 48 h, application rate 100 ppm in citrated cattle blood, kill after 2 days, read-out: efficacy
Description: Solvent: dimethyl sulfoxide To produce a suitable active ingredient formulation, 10 mg of active ingredient are mixed with 0.5 ml of dimethyl sulfoxide. Dilution with citrated cattle blood gives the desired concentration. About 20 unfed adult cat fleas (Ctenocephalides felis) are placed into a chamber which is closed at the top and bottom with gauze. A metal cylinder whose bottom end is closed with parafilm is placed onto the chamber. The cylinder contains the blood/active ingredient formulation, which can be imbibed by the fleas through the parafilm membrane. After 2 days, the kill in % is determined. 100% means that all of the fleas have been killed; 0% means that none of the fleas have been killed.

[3] = test system: Lucilia cuprina; experiment: Lucilia cuprina test; details: 48 h, application rate 100 ppm, L1 larvae, kill after 2 days, read-out: efficacy
Description: Solvent: dimethyl sulfoxide To produce a suitable active ingredient formulation, 10 mg of active ingredient are mixed with 0.5 ml of dimethyl sulfoxide, and the concentrate is diluted with water to the desired concentration. About 20 L1 larvae of the Australian sheep blowfly (Lucilia cuprina) are transferred into a test vessel containing minced horsemeat and the active ingredient formulation of the desired concentration. After 2 days, the kill in % is determined. 100% means that all the larvae have been killed; 0% means that no larvae have been killed.

[4] = test system: Myzus persicae; experiment: Myzus persicae oral test; details: 120 h, application rate 4 ppm, after 5 days, read-out: efficacy
Description: [table] To produce a suitable active ingredient formulation, 1 part by weight of active ingredient is dissolved with the stated parts by weight of solvent and made up to the desired concentration with water. 50 μl of the active ingredient formulation are transferred into microtitre plates and made up to a final volume of 200 μl with 150 μl of IPL41 insect medium (33%+15% sugar). Subsequently, the plates are sealed with parafilm, which a mixed population of green peach aphids (Myzus persicae) within a second microtitre plate is able to puncture and imbibe the solution. After 5 days, the efficacy in % is determined. 100% means that all the aphids have been killed; 0% means that no aphids have been killed.

[5] = test system: Myzus persicae; experiment: Myzus persicae spray test; details: foliar, 120 h, application rate 100 g/ha, Chinese cabbage leaf discs, after 5 days, read-out: efficacy
Description: (§1) [table] To produce a suitable active ingredient formulation, 1 part by weight of active ingredient is dissolved with the specified parts by weight of solvent and made up to the desired concentration with water containing an emulsifier concentration of 1000 ppm. To produce further test concentrations, the formulation is diluted with emulsifier-containing water. Discs of Chinese cabbage leaves (Brassica pekinensis) infested by all stages of the green peach aphid (Myzus persicae) are sprayed with an active ingredient formulation of the desired concentration. After 5 days, the efficacy in % is determined. 100% means that all the aphids have been killed; 0% means that no aphids have been killed.

[6] = test system: Phaedon cochleariae; experiment: Phaedon cochleariae spray test; details: 168 h, larvae, after 7 days, read-out: efficacy; for pest or weed control at 100 g/ha: application rate 100 g/ha
Description: as §1, with “pekinensis)” for “pekinensis) infested by all stages of the green peach aphid (Myzus persicae)”, “concentration and, after drying, populated with larvae of the mustard beetle (Phaedon cochleariae).” for “concentration.”, “7” for “5”, “beetle larvae” for “aphids”

[7] = test system: Spodoptera frugiperda; experiment: Spodoptera frugiperda spray test; details: foliar, 168 h, application rate 100 g/ha, maize leaf discs, caterpillars, after 7 days, read-out: efficacy
Description: [table] To produce a suitable active ingredient formulation, 1 part by weight of active ingredient is dissolved with the specified parts by weight of solvent and made up to the desired concentration with water containing an emulsifier concentration of 1000 ppm. To produce further test concentrations, the formulation is diluted with emulsifier-containing water. Leaf discs of maize (Zea mays) are sprayed with an active ingredient formulation of the desired concentration and, after drying, populated with caterpillars of the fall armyworm (Spodoptera frugiperda). After 7 days, the efficacy in % is determined. 100% means that all the caterpillars have been killed; 0% means that no caterpillar has been killed.

[8] = test system: Tetranychus urticae; experiment: Tetranychus urticae spray test, OP-resistant; details: foliar, 144 h, bean leaf discs, after 6 days, read-out: efficacy; for pest or weed control at 20 g/ha: application rate 20 g/ha; for pest or weed control at 100 g/ha: application rate 100 g/ha
Description: [table] To produce a suitable active ingredient formulation, 1 part by weight of active ingredient is dissolved with the specified parts by weight of solvent and made up to the desired concentration with water containing an emulsifier concentration of 1000 ppm. To produce further test concentrations, the formulation is diluted with emulsifier-containing water. Discs of bean leaves (Phaseolus vulgaris) infested with all stages of the greenhouse red spider mite (Tetranychus urticae) are sprayed with an active ingredient formulation of the desired concentration. After 6 days, the efficacy in % is determined. 100% means that all the spider mites have been killed; 0% means that no spider mites have been killed.

Row | SMILES | pest or weed control at 5 µg/cm2, 500 g/ha [1] [%] | pest or weed control at 100 ppm [2] [%] | pest or weed control at 100 ppm [3] [%] | pest or weed control at 4 ppm [4] [%] | pest or weed control at 100 g/ha [5] [%] | pest or weed control at 100 g/ha [6] [%] | pest or weed control at 100 g/ha [7] [%] | pest or weed control at 20 g/ha [8] [%] | pest or weed control at 100 g/ha [8] [%] | pest or weed control at 500 g/ha ([6]; application rate 500 g/ha) [%]
1 | CCS(=O)(=O)c1c(-c2nc3cc(C(F)(F)F)ncc3n2C)nc(-c2ccccc2)n1C [Example I-003] | 100 | 100 | 100 | 100 | 90 |  |  |  |  | 
2 | CCS(=O)(=O)c1c(-c2nc3cc(C(F)(F)F)ncc3n2C)nc(/C=C/C2CC2)n1C [Example I-007, 2-{2-[(E)-2-Cyclopropylvinyl]-5-(ethylsulfonyl)-1-methyl-1H-imidazol-4-yl}-3-methyl-6-(trifluoromethyl)-3H-imidazo[4,5-c]pyridine] | 100 | 95 | 100 | 100 | 90 | 100 | 100 |  |  | 
3 | CCn1c(Cl)nc(-c2nc3cc(C(F)(F)F)ncc3n2C)c1S(=O)(=O)CC [Example I-011] | 100 | 100 | 100 | 100 | 100 | 100 | 100 |  |  | 
4 | CCS(=O)(=O)c1c(-c2nc3cc(C(F)(F)F)ncc3n2C)nc(-c2ccccn2)n1C [Example I-013] | 100 | 100 | 100 | 100 | 90 | 100 |  |  |  | 
5 | CCS(=O)(=O)c1c(-c2nc3cc(C(F)(F)F)ncc3n2C)nc(-c2ccc(Cl)cn2)n1C [Example I-015] | 100 | 100 | 100 | 100 | 90 | 100 | 100 |  |  | 
6 | CCS(=O)(=O)c1c(-c2nc3cc(C(F)(F)F)ncc3n2C)nc(-c2cccnc2F)n1C [Example I-020] | 100 | 100 | 100 | 100 | 100 | 100 | 83 |  |  | 
7 | CCS(=O)(=O)c1c(-c2nc3cc(C(F)(F)F)ncc3n2C)nc(-c2ccncc2F)n1C [Example I-022] | 100 | 95 | 100 | 100 | 100 | 100 |  |  |  | 
8 | CCS(=O)(=O)c1c(-c2nc3cc(C(F)(F)F)ncc3n2C)nc(-c2cncnc2)n1C [Example I-023] | 100 | 100 | 100 | 100 | 100 | 100 |  |  |  | 
9 | CCS(=O)(=O)c1c(-c2nc3cc(C(F)(F)F)ncc3n2C)nc(-c2cnn(C)c2)n1C [Example I-042] |  |  |  | 100 | 90 | 100 |  | 90 |  | 
10 | CCS(=O)(=O)c1c(-c2nc3cc(C(F)(F)F)ncc3n2C)nc(-c2cnn(C3CC3)c2)n1C [Example I-055] |  | 100 | 100 | 100 | 90 | 100 |  |  | 90 | 
11 | CCS(=O)(=O)c1c(-c2nc3cc(C(F)(F)F)ncc3n2C)nc(-c2ccc(C(C)(C)C#N)cc2)n1C [Example I-066] |  |  |  | 100 | 70 |  |  |  | 90 | 83
12 | CCS(=O)(=O)c1c(-c2nc3cc(C(F)(F)F)ncc3n2C)nc(-c2ccc(C3(C#N)CC3)c(F)c2)n1C [Example I-070] |  |  |  | 100 | 100 | 100 | 83 |  | 100 | 
13 | CCS(=O)(=O)c1c(-c2nc3cc(C(F)(F)F)ncc3n2C)nc(-c2ccc(C3(C#N)CC3)cc2C)n1C [Example I-076] |  |  |  |  | 100 | 100 | 100 |  | 90 | 
14 | CCS(=O)(=O)c1c(-c2nc3cc(C(F)(F)F)ncc3n2C)nc(-c2cc(Cl)cc(C3(C#N)CC3)c2)n1C [Example I-077] |  |  |  |  | 90 | 100 |  | 90 | 100 | 
15 | CCS(=O)(=O)c1c(-c2nc3cc(C(F)(F)F)ncc3n2C)nc(-c2ccc(C#N)c(Cl)c2)n1C [Example I-082] |  |  |  | 100 | 90 | 100 | 83 | 100 | 100 | 
16 | CCS(=O)(=O)c1c(-c2nc3cc(C(F)(F)F)ncc3n2C)nc(-c2cccc(C3(C#N)CC3)c2)n1C [Example I-087] |  |  |  | 100 |  | 100 | 100 | 90 |  | 
17 | CCS(=O)(=O)c1c(-n2cc3ccc(C(F)(F)F)cc3n2)nc(-c2ccc(Cl)cc2)n1C [Example I-092] |  |  | 100 | 100 |  | 67 | 100 |  | 100 | 
